In US20180044306A1, “1,3,4-THIADIAZOL-2-YL-BENZAMIDE DERIVATIVES AS INHIBITORS OF THE WNT SIGNALLING PATHWAY” (Bayer Pharma Aktiengesellschaft, priority 2015, published 2018):

What was measured:
[1] = system: constitutive active colorectal cancer cell (CRC) Wnt pathway (HCT116-TOP); assay: Cellular reporter assay, HCT116 Super TopFlash (TOP), constitutive active Wnt pathway; assay type: cell-based; conditions: Homo sapiens, HCT-116; HCT116 Super TopFlash reporter cells, luciferase expression, 36 hours incubation, dilution series 50 μM to 15 nM
Procedure: In order to discover and characterize small molecules which inhibit the constitutive active colorectal cancer cell (CRC) Wnt pathway, a cellular reporter assay was employed. The corresponding assay cell was generated by transfection of the colorectal cancer cell line HCT116 (ATCC, #CCL-247) with the Super TopFlash vector (Morin, Science 275, 1997, 1787-1790; Molenaar et al., Cell 86 (3), 1996, 391-399). The HCT116 cell line is cultivated at 37° C. and 5% CO2 in DMEM/F-12 (Life Technologies, #11320-074), supplemented with 2 mM glutamine, 20 mM HEPES, 1.4 mM pyruvate, 0.15% Na-bicarbonate and 10% foetal bovine serum (GIBCO, #10270), this cancer cell line is pathophysiological relevant since it carries a deletion of position S45 in the β-catenin gene, leading to constitutive active Wnt signaling. Stable transfectants were generated by cotransfection with pcDNA3 and selection of stable transfected cells with 1 mg/ml G418.
(§1) In preparation of the assay, the two cell lines were plated 24 hours before at 10000 cells per well of a 384 micro titre plate (MTP) in 30 μL growth medium. Selective inhibitory activity for small molecules on the mutated Wnt pathway was determined after parallel incubation of both (TOP and FOP) HCT116 reporter cell lines with a compound dilution series from 50 μM to 15 nM in steps of 3.16-fold dilutions in CAFTY buffer (130 mM NaCI, 5 mM KCI, 20 mM HEPES, 1 mM MgCl2, 5 mM NaHCO3, pH 7.4) containing 2 mM Ca^2+ and 0.01% BSA. The compounds were thereby serially prediluted in 100% DMSO and thereafter in addition 50 fold into the CAFTY compound dilution buffer (described above). From this dilution 10 μL were added to the cells in 30 μL growth medium and incubated for 36 hours at 37° C. and 5% CO2. Thereafter luciferase assay buffer (1:1 mixture of luciferase substrate buffer (20 mM Tricine, 2.67 mM MgSO4, 0.1 mM EDTA, 4 mM DTT, 270 μM Coenzyme A, 470 μM Luciferin, 530 μM ATP, ph adjusted to pH 7.8 with a sufficient volume of 5M NaOH) and Triton buffer (30 mL Triton X-100, 115 mL glycerol, 308 mg Dithiothreitol, 4.45 g Na2HPO4. 2 H2O, 3.03 g TRIS HCl, ad 1I H2O, pH 7.8) was added as equal volume to the compound solution on the cells to determine luciferase expression as a measure of Wnt signaling activity in a luminometer.

[2] = system: HCT116-FOP; assay: Control reporter assay, HCT116 cells with FOP control vector (non-functional TCF elements); assay type: cell-based; conditions: Homo sapiens, HCT-116, luciferase expression, 36 hours incubation, dilution series 50 μM to 15 nM, read-out: HCT116-FOP IC50 [M] mol/L]
Procedure: In a parallel approach, HCT116 cells were cotransfected with the FOP control vector and pcDNA3. The FOP vector is identical to the TOP construct, but it contains instead of functional TCF elements a randomized, non-functional sequence. For this transfection a stable transfected cell line was generated as well.
as §1

| Structure (SMILES) | IC50 [1] [µM] | IC50 [2] [M] |
| --- | --- | --- |
| CN1CCN(CC(=O)Nc2cc(C(=O)Nc3nnc(N4CCCCC4)s3)ccc2OC(F)(F)F)CC1 [Example 1, 3-{[(4-methylpiperazin-1-yl)pacetyl]amino}-N-[5-(piperidin-1-yl)-1,3,4-thiadiazol-2-yl]-4-(trifluoromethoxy)benzamide] | 0.36 | ≥ 5e-05 |
| CC(C)(C)OC(=O)N1CCN(c2nnc(NC(=O)c3ccc(OC(F)(F)F)c(NC(=O)CN4CCOCC4)c3)s2)CC1 [Example 3, tert-butyl 4-[5-({3-[(morpholin-4-ylacetyl)amino]-4-(trifluoromethoxy)benzoyl}amino)-1,3,4-thiadiazol-2-yl]piperazine-1-carboxylate] | 0.086 | ≥ 5e-05 |
| CN1CCN(CC(=O)Nc2cc(C(=O)Nc3nnc(C4CCCCC4)s3)ccc2OC(F)(F)F)CC1 [Example 5, N-(5-cyclohexyl-1,3,4-thiadiazol-2-yl)-3-{[(4-methylpiperazin-1-yl)pacetyl]amino}-4-(trifluoromethoxy)benzamide] | 0.27 | ≥ 5e-05 |
| CC1CCN(c2nnc(NC(=O)c3ccc(OC(F)(F)F)c(NC(=O)CN4CCN(C)CC4)c3)s2)CC1 [Example 7] | 0.11 | ≥ 5e-05 |
| CC(C)(O)C1CCN(c2nnc(NC(=O)c3ccc(OC(F)(F)F)c(NC(=O)CN4CCOCC4)c3)s2)CC1 [Example 10] | 0.84 | ≥ 5e-05 |
| CN1CCN(CC(=O)Nc2cc(C(=O)Nc3nnc(N4CCC(C)(C)CC4)s3)ccc2OC(F)(F)F)CC1 [Example 12, 4-(2-{[5-{[5-(4,4-dimethylpiperidin-1-yl)-1,3,4-thiadiazol-2-yl]carbamoyl}-2-(trifluoromethoxy)phenyl]amino}-2-oxoethyl)-1-methylpiperazin-1-ium hexafluorophosphate] | 0.26 | 1.5e-05 |
| CCOC(=O)N1CCN(c2nnc(NC(=O)c3ccc(OC(F)(F)F)c(NC(=O)CN4CCOCC4)c3)s2)CC1 [Example 13, ethyl 4-[5-({3-[(morpholin-4-yl-acetyl)amino]-4-(trifluoromethoxy)benzoyl}-amino)-1,3,4-thiadiazol-2-yl]piperazine-1-carboxylate] | 1.4 | ≥ 5e-05 |
| CN(C)S(=O)(=O)N1CCN(c2nnc(NC(=O)c3ccc(OC(F)(F)F)c(NC(=O)CN4CCOCC4)c3)s2)CC1 [Example 15, N-{5-[4-(dimethylsulfamoyl)-piperazin-1-yl]-1,3,4-thiadiazol-2-yl}-3-[(morpholin-4-ylacetyl)-amino]-4-(trifluoromethoxy) benzamide] | 1.99 | ≥ 5e-05 |
| O=C(CN1CCOCC1)Nc1cc(C(=O)Nc2nnc(N3CCN(C(=O)C4CC4)CC3)s2)ccc1OC(F)(F)F [Example 20, N-{5-[4-(cyclopropylcarbonyl)-piperazin-1-yl]-1,3,4-thiadiazol-2-yl}-3-[(morpholin-4-ylacetyl)amino]-4-(trifluoromethoxy)benzamide] | 3.91 | ≥ 5e-05 |
| COC(=O)C1CCN(c2nnc(NC(=O)c3ccc(OC(F)(F)F)c(NC(=O)CN4CCOCC4)c3)s2)CC1 [Example 21, methyl 1-[5-({3-[(morpholin-4-ylacetyl)amino]-4-(trifluoromethoxy)benzoyl}-amino)-1,3,4-thiadiazol-2-yl]-piperidine-4-carboxylate] | 4.1 | ≥ 5e-05 |

Continued, values first:

| IC50 [1] [µM] | IC50 [2] [M] | Structure (SMILES) |
| --- | --- | --- |
| 0.0415 | ≥ 5e-05 | CN1CCN(CC(=O)Nc2cc(C(=O)Nc3nnc(N4CCN(C(=O)OC(C)(C)C)CC4)s3)ccc2OC(F)(F)F)CC1 [Example 2] |
| 0.492 | ≥ 5e-05 | CN1CCN(CC(=O)Nc2cc(C(=O)Nc3nnc(N4CCCC4)s3)ccc2OC(F)(F)F)CC1 [Example 4, 3-{[(4-methylpiperazin-1-yl)pacetyl]amino}-N-[5-(pyrrolidin-1-yl)-1,3,4-thiadiazol-2-yl]-4-(trifluoromethoxy)benzamide] |
| 0.0655 | 4.65e-05 | COC(=O)N1CCN(c2nnc(NC(=O)c3ccc(OC(F)(F)F)c(NC(=O)CN4CCN(C)CC4)c3)s2)CC1 [Example 6, methyl 4-(5-{[3-{[(4-methylpiperazin-1-yl)pacetyl]amino}-4-(trifluoromethoxy)benzoyl]amino}-1,3,4-thiadiazol-2-yl)ppiperazine-1-carboxylate] |
| 0.655 | ≥ 5e-05 | CN1CCN(CC(=O)Nc2cc(C(=O)Nc3nnc(N4CCC(C)(O)CC4)s3)ccc2OC(F)(F)F)CC1 [Example 8, N-[5-(4-hydroxy-4-methylpiperidin-1-yl)-1,3,4-thiadiazol-2-yl]-3-{[(4-methylpiperazin-1-yl)pacetyl]amino}-4-(trifluoromethoxy)benzamide] |
| 0.83 | 1.8e-05 | CN1CCN(CC(=O)Nc2cc(C(=O)Nc3nnc(N4CCN(C(=O)C5CC5)CC4)s3)ccc2OC(F)(F)F)CC1 [Example 9] |
| 0.22 | ≥ 5e-05 | COC1CCN(c2nnc(NC(=O)c3ccc(OC(F)(F)F)c(NC(=O)CN4CCN(C)CC4)c3)s2)CC1 [Example 11, N-{5-(4-methoxypiperidin-1-yl)-1,3,4-thiadiazol-2-yl]-3-{[(4-methylpiperazin-1-yl)acetyl]amino}-4-(trifluoromethoxy)benzamide] |
| 1.45 | ≥ 5e-05 | CN1CCN(CC(=O)Nc2cc(C(=O)Nc3nnc(N4CCC(O)CC4)s3)ccc2OC(F)(F)F)CC1 [Example 14, N-[5-(4-hydroxypiperidin-1-yl)-1,3,4-thiadiazol-2-yl]-3-{[(4-methylpiperazin-1-yl)acetyl]amino}-4-(trifluoromethoxy)benzamide] |
| 2.1 | ≥ 5e-05 | CN1CCN(CC(=O)Nc2cc(C(=O)Nc3nnc(N4CCN(C(=O)N(C)C)CC4)s3)ccc2OC(F)(F)F)CC1 [Example 16, N,N-dimethyl-4-(5-{[3-{[(4-methylpiperazin-1-yl)acetyl]-amino}-4-(trifluoromethoxy)-benzoyl]amino}-1,3,4-thiadiazol-2-yl)piperazine-1-carboxamide] |
| 2.85 | 4.1e-05 | CCOC(=O)N1CCN(c2nnc(NC(=O)c3ccc(OC(F)(F)F)c(NC(=O)CN4CCN(C)CC4)c3)s2)CC1 [Example 17, ethyl 4-(5-{[3-{[(4-methylpiperazin-1-yl)acetyl]-amino}-4-(trifluoromethoxy)-benzoyl]amino}-1,3,4-thiadiazol-2-yl)piperazine-1-carboxylate] |
| 3.15 | ≥ 5e-05 | CC(=O)N1CCN(c2nnc(NC(=O)c3ccc(OC(F)(F)F)c(NC(=O)CN4CCN(C)CC4)c3)s2)CC1 [Example 18, N-[5-(4-acetylpiperazin-1-yl)-1,3,4-thiadiazol-2-yl]-3-{[(4-methylpiperazin-1-yl)-acetyl]amino}-4-(trifluoromethoxy)benzamide] |
| 3.8 | ≥ 5e-05 | CN1CCN(CC(=O)Nc2cc(C(=O)Nc3nnc(N4CCN(S(=O)(=O)N(C)C)CC4)s3)ccc2OC(F)(F)F)CC1 [Example 19, N-{5-[4-(dimethylsulfamoyl)-piperazin-1-yl]-1,3,4-thiadiazol-2-yl}-3-{[(4-methylpiperazin-1-yl)acetyl]-amino}-4-(trifluoromethoxy)-benzamide] |
| 4.3 | ≥ 5e-05 | COC(=O)C1CCN(c2nnc(NC(=O)c3ccc(OC(F)(F)F)c(NC(=O)CN4CCN(C)CC4)c3)s2)CC1 [Example 22, methyl 1-(5-{[3-{[(4-methyl-piperazin-1-yl)acetyl]amino}-4-(trifluoromethoxy)benzoyl]-amino}-1,3,4-thiadiazol-2-yl)-piperidine-4-carboxylate] |
